5 compounds from US20250282770A1, “BIOLUMINESCENT PROBES TO TRACK STEM CELLS IN VIVO” (THE BOARD OF TRUSTEES OF THE UNIVERSITY OF ILLINOIS, priority 2024, published 2025) can be followed below.

Assay [1] concerns intracellular levels of NO. Put plainly: Intracellular NO levels in 4T1-Luc cells with BL660NO probe. It is filed as cell-based, murine. To be noted: 30 minutes. The procedure: FIG. 14A-D. a) 4T1-Luc cells administered BL660NO (NO-responsive bioluminescent probe; 39 μM) after incubation with DEA-NONOate (50 μM) for 30 minutes. b) Quantified data from a. c) 4T1-Luc cells administered BL660NO (20 μM) after incubation with L-NMMA (1 mM) for 30 minutes. d) Quantified data from c. Statistical analysis was performed using two-tailed Student's t-test with Welch's correction (α=0.05), *ρ<0.05.

In assay [2] the target is T1, ALDH1A1 (Mus musculus, UniProt P24549).
T1 sequence (P24549 1-501): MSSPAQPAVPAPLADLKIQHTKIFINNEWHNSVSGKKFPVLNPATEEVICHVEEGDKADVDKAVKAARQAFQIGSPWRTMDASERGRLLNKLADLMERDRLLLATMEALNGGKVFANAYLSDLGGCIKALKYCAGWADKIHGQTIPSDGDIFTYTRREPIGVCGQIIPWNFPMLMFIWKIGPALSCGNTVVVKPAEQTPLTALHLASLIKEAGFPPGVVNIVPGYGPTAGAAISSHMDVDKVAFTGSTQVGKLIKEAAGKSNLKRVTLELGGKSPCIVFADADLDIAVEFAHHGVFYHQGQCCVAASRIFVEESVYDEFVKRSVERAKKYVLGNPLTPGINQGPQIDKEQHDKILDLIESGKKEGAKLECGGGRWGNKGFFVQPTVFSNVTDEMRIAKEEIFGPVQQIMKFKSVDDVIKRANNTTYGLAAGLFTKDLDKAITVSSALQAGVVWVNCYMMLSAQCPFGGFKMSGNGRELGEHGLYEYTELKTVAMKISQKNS
Put plainly: Validation of ALDH-mediated activation of AlDeLuc in heterotopic breast cancer model via DEAB inhibition. The class given is in vivo, BALB/c mice. On the set-up: from tissue; host or cells: 4T1-Luc tumours in BALB/c mice. The procedure: Validation of ALDH-mediated Activation of AlDeLuc in a Heterotopic Breast Cancer Model via DEAB Inhibition. BALB/c mice bearing 4T1-Luc tumors were anesthetized using isoflurane (1-3% for maintenance; up to 5% for induction) in oxygen from a precision vaporizer. After testing to ensure animals are fully under anesthesia, each mouse was administered AlDeLuc via retro-orbital injection (0.55 mg/kg, 1:19 v/v DMSO:PBS). Images were captured using the IVIS imaging system 40 minutes after injection. Bioluminescence light was captured in open mode (no filters were applied). ROIs were drawn around each tumor and summed for each animal. The signal intensity was quantified using the Living Image Analysis Software. After two days, the same animals were anesthetized and co-administered a solution of AlDeLuc and DEAB (0.55 mg/kg and 93 mg/kg respectively, 1:19 v/v DMSO:PBS). After the allotted 40 minutes, the images were captured using the IVIS imaging system. Bioluminescence was collected in open mode (no filters were applied). ROIS were drawn around each tumor and summed for each animal. The signal intensity was quantified using the Living Image Analysis Software.

For assay [3], the target named is T1, ALDH1A1. As to the kind of experiment: DEAB inhibition of AlDeLuc activation in 4T1 cells. The class given is cell-based, murine. Set-up: host or cells: 4T1 murine mammary carcinoma cells. To be noted: DEAB 500 μM; AlDeLuc 100 μM; 4T1 lysates. The procedure:
Validation of ALDH-Mediated Activation of AlDeLuc in Murine Breast Cancer Cells. 4T1 cells were cultured in T75 culture flasks. After two days, cells had become ˜90% confluent. An aliquot of RPMI 1640 media (1 mL) was removed from each flask and replaced with either DEAB ([…], 0.5% DMSO) or vehicle (0.5% DMSO). After incubation for one hour, the solutions were aspirated, washed with PBS, and resuspended in fresh RPMI 1640 media (9 mL). Each flask was then incubated with the AlDeLuc (100 μM) and DEAB (500 μM) or AlDeLuc (100 μM) and vehicle (DMSO), each with a final concentration of 1% DMSO. After 60 minutes, this solution was aspirated, washed with fresh PBS, and detached from the culture flasks. The cells were then transferred to a 15 mL centrifuge tube and pelleted at 1000 rpm for 5 minutes at room temp. The cells were resuspended in PBS along with 10% protease inhibitor solution (1 protease inhibitor mini tablet per 10 mL of PBS, Pierce, Thermo Fisher Scientific) and sonicated on ice for 2.5 minutes (pulse 01, 01, 40%). The cell debris was removed via centrifugation and the supernatant was plated ([…]) into a 96-well plate (n=4 for each condition). […] ROIs were drawn around each well and the signal intensity was quantified using the Living Image Analysis software.

In assay [4] the test system is ALDH1A1 activity in 4T1 cells. Put plainly: Effect of nitric oxide (DETA NONOate) on ALDH1A1 activity in 4T1 cells using AlDeLuc. It is filed as cell-based, murine. Particulars: DETA NONOate 50 μM, 2-day treatment; AlDeLuc 2 μM. As for the experimental part:
Exploring the Effect of Nitric Oxide on ALDH1A1 activity in 4T1 Cells Using AlDeLuc. 4T1 cells were cultured in T75 flasks, and once they reached ˜30% confluency (1 day), the media was removed and replaced with fresh RPMI 1640 media supplemented with either DETA NONOate (50 μM) or vehicle (media). After 24 hours, the media was aspirated, and the cells were treated once more with RPMI 1640 media containing either DETA NONOate (50 μM) or vehicle (media). After […], the suspension was removed and cells were treated with AlDeLuc (2 μM, final concentration of 0.01% DMSO). After 60 minutes the AlDeLuc solution was aspirated, washed with fresh PBS, and detached from the culture flasks. The cells were then transferred to a 15 mL centrifuge tube and pelleted at 1000 rpm for 5 minutes at room temp. The cells were resuspended in PBS along with 10% protease inhibitor solution (1 protease inhibitor mini tablet per 10 mL of PBS, Pierce, Thermo Fisher Scientific) and sonicated on ice for 2.5 minutes (pulse 01, 01, 40%). The cell debris was removed via centrifugation and the supernatant was plated (95 μL/well) into a 96-well plate (n=4 for each condition). Each well was treated with luciferase (5 μL, 1 mg/mL) and immediately imaged using the IVIS imaging system in open mode. ROIs were drawn around each well and the signal intensity was quantified using the Living Image Analysis software.

The test system of assay [5] is ALDH1A1 activity in 4T1 cells. As to the kind of experiment: Influence of L-NMMA on ALDH1A1 activity in 4T1 cells using AlDeLuc. It is filed as cell-based, murine. To be noted: L-NMMA 1 mM; AlDeLuc 50 μM.
Description: Influence of L-NMMA on ALDH1A1 activity in 4T1 Cells Using AlDeLuc. 4T1 cells were cultured in T75 culture flasks. After two days, cells had become ˜90% confluent. The media was aspirated and 9 mL of fresh media was added. The flasks were then treated with L-NMMA (1 mM, cell culture water) or vehicle (cell culture water). After incubation for 60 minutes, the solutions were aspirated, washed with PBS, and resuspended in fresh RPMI 1640 media (9 mL). AlDeLuc was added to each flask (50 M, 5% v/v DMSO:PBS) for a final concentration of 0.5% DMSO per flask. After 60 minutes this solution was aspirated, washed with fresh PBS, and detached from the culture flasks. The cells were then transferred to a 15 mL centrifuge tube and pelleted at 1000 rpm for 5 minutes at room temp. The cells were resuspended in PBS along with 10% protease inhibitor solution (1 protease inhibitor mini tablet per 10 mL of PBS, Pierce, Thermo Fisher Scientific) and sonicated on ice for 2.5 minutes (pulse 01, 01, 40%). The cell debris was removed via centrifugation and the supernatant was plated (95 L/well) into a 96-well plate (n=4 for each condition). Each well was treated with luciferase (5 μL, 1 mg/mL) and immediately imaged using the IVIS imaging system in open mode. ROIs were drawn around each well and the signal intensity was quantified using the Living Image Analysis software.
Assay [6] deals with ALDH1A1. As to the kind of experiment: Immunohistochemical analysis of excised 4T1-Luc tumors. The class given is in vivo, BALB/c mice. Particulars: L-NMMA 50 mg/kg versus vehicle; high-fat diet; opposite to reduced iNOS. As for the experimental part:
(§1) Finally, to examine how NO influences ALDH1A1 activity in vivo we placed BALB/c mice (female, 5-7 weeks old) on a high-fat diet for 40 weeks to induce an inflammatory response through elevated NO production. This period consists of a ˜20-week priming period prior to inoculation of the animals with 4T1-Luc cells at the mammary fat pad. At this point, the mice were randomized into two groups. The treatment group was administered L-NMMA (50 mg/kg), whereas the control group received water via oral gavage for 20 days. The day after the final treatment, mice from both conditions were treated systemically with AlDeLuc, and the bioluminescence was monitored (FIG. 5e). […] At the completion of the diet study, animals were sacrificed, and their tumors were excised for further immunohistochemical analysis.

For the next assay, the system named is iNOS. Described as above. To be noted: L-NMMA 50 mg/kg versus vehicle; high-fat diet. It is filed as in vivo, BALB/c mice.
Description: as §1, with “Diet-Induced Inflammation Modulates ALDH1A1 Activity in a Murine Model of Breast Cancer. Finally,” for “Finally,”, “analysis. Specifically, we determined that iNOS expression in tumors treated with L-NMMA was reduced. […] That is, reducing the levels of NO has the effect of increasing ALDH1A1 activity (as determined with AlDeLuc), as well as overall protein expression levels (FIG. 5h).” for “analysis.”

For another assay, the system named is ALDH1A1 activity. As to the kind of experiment: High-fat diet inflammatory model, orthotopic 4T1-Luc tumors, AlDeLuc imaging after L-NMMA. Particulars: L-NMMA 50 mg/kg oral gavage 20 days, AlDeLuc 0.55 mg/kg. It is filed as in vivo, BALB/c mice. As for the experimental part:
as §1
Generation of an Orthotopic 4T1-Luc Breast Cancer Model for Diet Studies. Female BALB/c mice (˜6 weeks old) were inoculated with 4T1-Luc cells (50 μL of 1×10^5 cells in 1:1 v/v serum-free RPMI 1640 media and Matrigel) via subcutaneous injections into the mammary fat pad. Tumor volumes were measured using the caliper method every three days. Body weight was measured daily over the course of the experiment.

The test system of assay [7] is ALDH1A1 activity in 4T1 cells. Put plainly: Influence of interferon-gamma on ALDH1A1 activity in 4T1 cells using AlDeLuc. To be noted: INF-γ 26.8 ng/mL, 12 hours; AlDeLuc 50 μM. It is filed as cell-based, murine. The procedure:
Influence of Interferon-gamma (INF-γ) on ALDH1A1 activity in 4T1 Cells Using AlDeLuc. 4T1 cells were cultured in T75 culture flasks. After two days, cells had become ˜90% confluent. An aliquot of RPMI 1640 was removed (26.8 μL) and the flasks were then treated with INF-γ (26.8 μL of […] stock in PBS, 26.8 ng/mL final conc.) or vehicle (26.8 μL PBS). After 12 hours, the solutions were aspirated, washed with PBS, and resuspended in fresh RPMI 1640 media (9 mL). AlDeLuc was added to each flask ([…], 5% v/v DMSO:PBS) for a final concentration of 0.5% DMSO per flask. After 60 minutes this solution was aspirated, washed with fresh PBS, and detached from the culture flasks. The cells were then transferred to a 15 mL centrifuge tube and pelleted at 1000 rpm for 5 minutes at room temp. The cells were resuspended in PBS along with 10% protease inhibitor solution (1 protease inhibitor mini tablet per 10 mL of PBS, Pierce, Thermo Fisher Scientific) and sonicated on ice for 2.5 minutes (pulse 01, 01, 40%). The cell debris was removed via centrifugation and the supernatant was plated (95 μL/well) into a 96-well plate (n=4 for each condition). Each well was treated with luciferase (5 μL, 1 mg/mL) and immediately imaged using the IVIS imaging system in open mode. ROIs were drawn around each well and the signal intensity was quantified using the Living Image Analysis software.

`CCN(CC)/[N+]([O-])=N/O.CCNCC` [DEA NONOate]: in assay [1] (DEA NONOate 50 μM), the “intracellular levels of NO” value is on record as “increasing”.
`CCN(CC)c1ccc(C=O)cc1` [DEAB, diethylaminobenzaldehyde]: the “difference in total luminescent counts, AlDeLuc alone versus DEAB co-treated” value at ALDH1A1 [2] (DEAB 93 mg/kg, AlDeLuc 0.55 mg/kg) was found to be 2.8 fold. Also, the total luminescent counts at ALDH1A1 [2] (co-treated DEAB 93 mg/kg and AlDeLuc 0.55 mg/kg, 40 min) is given as 0.78±0.28×10^4. At ALDH1A1 [3], the “diminished bioluminescent signal relative to uninhibited cells” value is “approximately 5 fold”.
In turn, `NCCN(CCN)/[N+]([O-])=N/O` [DETA NONOate] registered a bioluminescence decreased in [4] of 1.3 fold.
Take `CNC(=N)NCCC[C@H](N)C(=O)O` [L-NMMA]: the “bioluminescence higher compared to vehicle-treated cells” value in [5] is 2.4 fold. The “intracellular levels of NO” value in assay [1] (L-NMMA 1 mM) is recorded as “decreasing”. In addition, the “ALDH1A1 expression in tumors” value in the assay on ALDH1A1 [6] is on record as “opposite trend”. The “iNOS expression in tumors” value in the assay on iNOS is reported as “reduced”. In the assay with ALDH1A1 activity, the “enhancement in total luminescent counts compared to control group” value worked out at 5.9 fold. In addition, the total luminescent counts with ALDH1A1 activity (40 min) is on record as 9.9±2.7×10^4.
Take “IFN-γ: interferon gamma, shown to stimulate NO production via inducible nitric oxide synthase”: in assay [7], the “bioluminescence signal lower relative to vehicle-treated control cells” value is on record as 3.2 fold.
